A short description of data set [1]: Amorphous or crystalline state by powder X-ray diffraction (XRPD). The format is physicochemical. The following applies: for XRPD 1 week 40/75 open: 1 week 40° C. 75% RH open; for XRPD initial: freshly prepared. The method, then:
Amorphous or crystalline state of freshly prepared spray dried dispersions described in Example 2 was assessed by Powder X-ray diffraction (XRPD). The same analysis was repeated after 1 week storage at 40° C. and 75% relative humidity in open conditions. XRPD patterns were obtained with Rigaku MiniFlex 600 X-Ray diffractometer operating with a copper anode ([…]; Kα2=1.54439 Å), generator set at 45 kV and 15 mA, in 2-theta range 3-40° 2θ, scanned at a rate of 2.5° 2θ per minute in continuous scanning mode, and using a D/teX Ultra high speed detector.

The nature of data set [2]: Chemical stability: impurities by HPLC, initial and after 1 week 40° C./75% RH. The format is physicochemical. As for the experimental part: After a secondary drying overnight at 40° C. 15% RH in a convection tray dryer, the different ASD were characterized for physical stability (XRPD, Tg versus Relative humidity), chemical stability (impurity by HPLC after 1 week 40° C./75% RH) and in vitro dissolution.
Purity of each batch of ASD was tested by HPLC analysis on sample just after preparation and after one week storage in accelerated stability conditions: 40° C./75% RH open or closed. In closed conditions, ASDs were placed in closed bottles (heat induction seal) containing 1 g SORB-IT desiccant canister.
HPLC-analysis was performed using an Agilent 1100 or 1200 system with binary or quaternary pump, a diode array detector, a refrigerated autosampler, and column oven. Data analysis was performed using Empower 3 software. The column used was Zorbax Bonus RP 4.6×150 mm (3.5 μm). Acetonitrile/20 mM Potassium phosphate buffer pH 3.0 was used as mobile phase with a gradient concentration at a flow rate of 1.0 mL/min; UV detection was used at a wavelength of 220 nm.

A short description of data set [3]: Non-sink in vitro dissolution, micro-centrifuge method. Format: physicochemical. The following applies: PBS pH 6.5 with 0.5 wt % SIF; for Dissolution C90 min / Dissolution C20 h: 37° C., theoretical maximum 1000 μg/mL; for Dissolution C90 min: 90 min; for Dissolution C20 h: 1200 min. The method, then:
Dissolution of spray dried materials of belinostat has been tested in vitro, in non-sink conditions, in order to evaluate the ability of formulations to achieve supersaturation and sustainability of supersaturation relative to crystalline drug.
Dissolution was assessed using micro-centrifuge method (Curatolo et al. Pharm Res 2009:26(6):1419-1431). Micro-centrifuge dissolution method consisted of introducing a 1.8 mg equivalent belinostat as ASD into an empty micro-centrifuge tube and add 1.8 mL total volume dissolution media (PBS pH 6.5 with 0.5 wt % Simulated Intestinal Fluid) to achieve a theoretical maximum belinostat concentration in solution of 1000 μg/mL. For some formulations (marked with* in Table 2), ASDs were first exposed in pH 2.0 gastric media at 2000 μg/mL for 30 min before to be transferred to the PBS pH 6.5 with 0.5 wt % Simulated Intestinal Fluid at a final theoretical maximum belinostat concentration in solution of 1000 μg/mL. Tubes were placed at 37° C. Aliquot (50 μL) were taken from supernatant after centrifugation 15 800 g for 1 min at each time point (5, 10, 20, 45, 90 and 1200 minutes). Between each time point, solids in the centrifuge tube were resuspended by mixing the sample continuously on the vortex mixer for 30 s and the tube was placed back at 37° C. Aliquot samples were diluted using acetonitrile and drug concentration was determined by HPLC.

A short description of data set [4]: Glass transition temperature (Tg) by modulated DSC. The format is physicochemical. The method, then:
To also evaluate the physical stability of prepared ASDs, glass transition temperature (Tg) was determined at two relative humidity (RH) conditions (<5% and 75% RH) by modulated differential scanning calorimetry (m-DSC).
DSC curves were recorded using a TA Instruments Q2000 differential scanning calorimeter. Samples were heated under nitrogen flow from 0 to 200° C. at 2.5° C.±1.5° C./min in non-hermetically sealed pan for <5% RH analysis or from 0 to 130° C. at 2.5° C.±1.5° C./80 sec in hermetically sealed pan for 75% RH analysis.

For data set [5] the following is noted: vorinostat: phase I trial; cited from earlier work.
For data set [6] the following is noted: cited from earlier work.
The conditions of data set [7]: above pH 8.5; cited from earlier work.
For data set [8] the following is noted: cited from earlier work. This is another data set of the same source.
Where [9] appears, read: 1 week 40° C./75% RH closed, desiccant.

SMILES strings stand for the structures.

For `O=C(/C=C/c1cccc(S(=O)(=O)Nc2ccccc2)c1)NO` [Formulation 1], in data set [1], the “XRPD 1 week 40/75 open” value is given as “Crystalline” and the XRPD initial entry was “Crystalline”. In data set [2] (just after preparation), the “Bel Acid, Initial” value was “Bel Acid <0.05 area %” and the “Total imp, Initial” value was “Total imp <0.05 area %”. In data set [3], the “Dissolution C90 min” value was determined as 270 µg/mL and the “Dissolution C20 h” value was determined as 310 µg/mL.

Take `O=C(/C=C/c1cccc(S(=O)(=O)Nc2ccccc2)c1)NO` [Formulation 2]: in data set [1], the “XRPD 1 week 40/75 open” value was “Crystalline” and the XRPD initial entry is given as “Partially crystalline”. In data set [1] (upon storage), the “physical state upon storage (in words)” value is on record as “undergoes recrystallization upon storage”. Moreover, the “Tg <5% RH” value in data set [4] (<5% RH, m-DSC) was determined as 53 °C. For the same molecule, in data set [4] (amorphous belinostat without polymer), the “glass transition temperature (Tg)” value was “about 53 °C”. Besides, in data set [2] (setting [9]), the “Bel Acid, 1 week 40/75 closed” value is on record as “Bel Acid 0.10 area %”; the “Bel Dimer, 1 week 40/75 closed” value was “Bel Dimer 1.34 area %”; the “Total imp, 1 week 40/75 closed” value was “Total imp 1.49 area %”. Also, in data set [2] (1 week 40° C./75% RH open), the “Bel Acid, 1 week 40/75 open” value was “Bel Acid 0.10 area %”; the “Bel Dimer, 1 week 40/75 open” value was “Bel Dimer 0.25 area %”; the “Observation on storage 1 week 40/75 open” value is given as “Recrystallization”; the “Total imp, 1 week 40/75 open” value was “Total imp 0.42 area %”. Further, in data set [2] (just after preparation), the “Bel Acid, Initial” value is given as “Bel Acid 0.05 area %”; the “Bel Dimer, Initial” value is on record as “Bel Dimer 0.48 area %”; the “Total imp, Initial” value was “Total imp 0.59 area %”. In data set [3], the Observation during dissolution entry was “Recrystallization”, the “Dissolution C90 min” value came out at 363 µg/mL and the “Dissolution C20 h” value came out at 387 µg/mL.

`O=C(CCCCCCC(=O)Nc1ccccc1)NO` [Vorinostat]: the absolute oral bioavailability in data set [5] is given as 43%. The “permeability (in words)” value in data set [6] is “moderate permeability”.

As to `O=C(/C=C/c1cccc(S(=O)(=O)Nc2ccccc2)c1)NO` [belinostat, (2E)-N-hydroxy-3-[3-(phenylsulfamoyl)phenyl]prop-2-enamide], in data set [7], the “chemical stability in liquid solution” value was “poor chemical stability”.

On to `CC(O)C(=O)O.Cc1[nH]c2ccccc2c1CCNCc1ccc(/C=C/C(=O)NO)cc1` [panobinostat lactate], for which the “aqueous solubility, maximum” value in data set [8] (pH 2 or 3) is approximately 5000 µg/mL. The aqueous solubility (as a rule, the concentration that dissolves in the medium under given conditions) at neutral pH in data set [8] (pH 6.8) is 0.3 mg/mL. For the same molecule, in data set [8] (pH 7.6), the aqueous solubility is 70 µg/mL. In data set [8] (water), the “solubility in water (in words)” value is “slightly soluble in water”. In addition, the absolute oral bioavailability entry in data set [5] is reported as “approximately 21%”. In addition, in data set [6], the “permeability (in words)” value was “highly permeable”.

Values taken from US11266614B2, “Oral formulations of belinostat” (ONXEO, priority 2017, dated 2022).
